Assay [1] deals with Ehrlich Ascitic Carcinoma solid tumor. Description: Ehrlich ascitic tumor (solid) growth inhibition in mice. In kind it is in vivo, Swiss albino mice. The conditions noted are these: 9 days, evaluated day 13. The protocol: FIG. 9. Tumor growth inhibition by boswellic acid analogs. Mice treated intraperitoneally with a compound (designated “c”) of formula 1, wherein R3=COCH2CH2CH3, R1=H, R4+R5=O, have shown 22% tumor growth inhibition at a dose of about 50 mg/kg of body weight, and 41% tumor growth inhibition at a dose of 100 mg/kg of body weight.
Swiss albino mice of 6-8 weeks, weighing 18-23 g of single sex were used. For the initiation of experiment, 1×10^7 cells of EAC (Ehrlich Ascitic Carcinoma) cells were transplanted intramuscularly (i.m.) in 32 mice for the development of solid tumors. The day of tumor transplantation was assigned as day 0. Next day (day-1) animals were randomly selected and divided into four groups having equal number of mice in each group of similar body wt. Groups I and II were treated with compound of formula 1 where R3=COCH2CH2CH3, R1=H, R4+R5=O at the dose of 50 mg/kg b, wt and 100 mg/kg b. wt. intraperitoneally, respectively. Group III received 0.2 ml of 0.85% normal saline and served as normal control while group IV serving as positive control was treated with 5-FU (22 mg/kg b. wt.) intraperitoneally. The total duration of treatment was of 9 days. The evaluation of effect of treatment on tumor was done on 13th day. Ehrlich ascites cells (1×10^7) were injected intramuscularly in the right thigh muscles and on the following day animals started receiving treatment intraperitoneally in 0.5% Tween-20 daily at the indicated doses for 9 days. The growth of tumor and the efficacy of compound of formula 1, where R3=COCH2CH2CH3, R1=H, R4+R5=O in inhibiting tumor growth were evaluated on day 13 in terms of the weight of the tumor in treated and control groups count. The determination of solid tumor growth inhibition against EAT was calculated as percent tumor growth regression according to the following: […]

The next assay has as its system caspase-9 in HL-60 cells. Description: Caspase-9 activation, fluorometric, HL-60. As to conditions: HL-60, 50 μM, 6 hours. In kind it is cell-based, human. The protocol:
(§1) FIGS. 8A-8B. Caspase activation in HL-60 cells by boswellic acid analogs. FIG. 8A depicts the results of a colorimetric evaluation of caspase-3 activation in HL-60 cells and Molt-4 cells. Cells were treated with a compound designated “c” (formula 1 compound wherein R3=COCH2CH2CH3, […] and R4+R5=O) at concentrations indicated for 6 hours. Caspase-3 inhibitor (DEVD-fmk) was added 30 min prior to the addition of caspase-3 substrate (DEVD-pNA) to the lysate. Data are mean of triplicate determinations with coefficients of variation less than 10%. […] Caspase-9 inhibitor LEHD-CHO was added 30 min prior to the addition of caspase-9 substrate to validate the specificity of caspase-9. Caspase-9 activity was measured fluorometrically. Data are a mean of triplicate determinations with a coefficient of variation of less than 10%. Caspases are important cysteine-proteases that are involved in the cleavage of DNA specifically producing 180 bp DNA fragments. The enzymes act through different signaling pathways. […] Caspase-9 activity was determined fluorometrically and caspase-3 colorimetrically using kits and the instruction provided by the manufacturer (BD pharmingen, USA). Caspase-3 activity was determined in both Molt-4 and HL-60 leukemia cells while caspase-9 was determined in HL-60 cells.

The subject of assay [2] is HL-60 cells. Briefly: Endogenous nitric oxide, DAF-2-DA flow cytometry. In kind it is cell-based, human. The conditions noted are these: HL-60, 4 hr. The protocol:
FIG. 5. Copious early endogenous formation of nitric oxide by compound of formula 1 where R3=COCH2CH2CH3, R1=H, R4+R5=O in HL-60 cells. Nitric Oxide (NO) production was measured by flow cytometry in the FL1 channel using DAF-2-DA (an NO probe) after exposing HL-60 cells for 4 hours to indicated concentrations of SS-145. To investigate the contribution of iNOS to NO production, cells were pre-incubated with iNOS inhibitor sMIT (0.5 mM) for 1 hour prior to treatment with a compound designated “c” (a compound of formula 1 wherein R3=COCH2CH2CH3, R1=H, R4+R5=O). NO and peroxide generation are the early events leading to oxidative stress in the cells. […] It is possible that NO stimulated mitochondrial superoxide generation which together with NO may form peroxynitrite, a dangerous species in producing oxidative damage to the cells and responsible for production of apoptosis
Measurement of in situ NO generation involved the use of a fluorescent probe diaminofluoresceine-2-diacetate, which is permeated easily into the cells. Once inside the cell it binds NO soon it is formed and emits fluorescence [H. Kojima et al, 1998]. For this purpose, the HL-60 cells were incubated with DAF-2-DA for 30 min before being incubated with the indicated concentration of SS-145 for 4 hr. Cells were analyzed on flow cytometer in FL-1 channel for NO. […]
(In general: Flow cytometry measures light scatter and fluorescence of single cells or particles in a stream.)

For assay [3], the system named is HL-60 cells. Description: Inhibition of cell proliferation, MTT assay. The conditions noted are these: HL-60, 48 hours. It counts as cell-based, human. The method, then: FIGS. 1A-1B. FIG. 1A depicts the main triterpenoic acid constituents of the gum exudates from Boswellia serrata, the source of boswellic acids, represented by boswellic acid, acetyl boswellic acid, 11-keto-boswellic acids, acetyl-11-keto-boswellic acid. […] Cell proliferation analysis was performed in HL-60 cells using the MTT method described in the Examples section. Cells were incubated with each formula 1 analog for 48 hours at indicated concentration and thereafter, the mitochondiral competence of MTT reduction as an index of cell viability was determined. The optical density (OD) of the untreated control was taken as 100% viability. […] This analog, as a prototype, was selected for detailed investigations. Where a=compound of formula 1, R3=COCH2CH2CH3, R1=H, R4=R5=H, b=compound of formula 1, R3=COCH2CH3, R1=H, X=H2, c=compound of formula 1, R3=COCH2CH2CH3, R1=H, R4+R5=O, d=compound of formula 1, R1=H, R3=COCH2CH3, R4=R5=H, e=compound of formula 1, R3=COCH2CH2CH3, R1=H, R4=R5=H, f=β-boswellic acid
Human leukemia cells HL-60 were grown in suspension in 96-well culture plate and were incubated with different concentrations of the test analogs for 48 hr. The cells were then incubated with MTT and the MTT-formazon formed is eluted with DMSO, and OD measured in ELISA Reader [Shashi et al., 2006]. The intensity of the color formed in the untreated control wells relates to 100% cell growth. […]
In general terms: Tetrazolium assays rely on reduction of a dye to a coloured formazan, in cell work by metabolically active cells.

Assay [4] has as its system caspase-3 in Molt-4 cells. Briefly: Caspase-3 activation, colorimetric, Molt-4. In kind it is cell-based, human. As to conditions: 6 hr. The method, then: as §1

Experimental findings from patent US20090298938A1, “USE OF SEMI SYNTHETIC ANALOGUES OF BOSWELLIC ACIDS FOR ANTICANCER ACTIVITY” (COUNCIL OF SCIENTIFIC & INDUSTRIAL RESEARCH, priority 2008, published 2009) are described below.

Entries after “also recorded” stand apart in the source; their conditions may differ.

On to `CCCC(=O)OC1CCC2(C)C(CCC3(C)C2C(=O)C=C2C4C(C)C(C)CCC4(C)CCC23C)C1(C)C(=O)O` (stereo not drawn) [R3=COCH2CH2CH3, R1=H, R4+R5=O], for which the tumor growth inhibition in assay [1] (50 mg/kg intraperitoneally) is recorded as 22%; in assay [1] (100 mg/kg intraperitoneally) it was 41%. Further, the caspase-9 activity stimulation in the assay with caspase-9 in HL-60 cells is recorded as 4-5 fold. The nitric oxide generation entry in the assay with HL-60 cells [2] is reported as “early generation of NO; also recorded: all the cells formed NO within 6 hr irrespective of the concentration”. Besides, in the assay with HL-60 cells [3], the “effect on cell proliferation compared to other analogs” value is given as “marginally stronger effect compared to other analogs”. Besides, the caspase-3 activation result in assay [4] is listed as “about 50%”.
